Reference: patent publication US10213433B2 (AbbVie Inc., priority 2010, dated 2019)
pKi: −log10 of the molar value.

Target: Bcl-2 protein (Homo sapiens (Human), UniProt P10415)
Assay: Bcl-2 binding TR-FRET (Time-Resolved Fluorescence-Resonance-Energy-Transfer) assay
Settings: inhibition constant for binding to Bcl-2 protein
Source text: The smaller the Ki value, the greater is the binding affinity.

Chain of Bcl-2 protein (P10415 whole entry): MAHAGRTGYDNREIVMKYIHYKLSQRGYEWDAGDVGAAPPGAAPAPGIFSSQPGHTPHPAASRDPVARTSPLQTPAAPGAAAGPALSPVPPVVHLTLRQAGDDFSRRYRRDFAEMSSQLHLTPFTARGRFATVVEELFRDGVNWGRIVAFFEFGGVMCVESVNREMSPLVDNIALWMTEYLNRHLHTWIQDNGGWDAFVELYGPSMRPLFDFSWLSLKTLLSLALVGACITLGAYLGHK

**Q.** `CC1(C)CCC(CN2CCN(c3ccc(C(=O)NS(=O)(=O)c4ccc(NN5CCS(=O)(=O)CC5)c([N+](=O)[O-])c4)c(Oc4cnc5[nH]ccc5c4)c3)CC2)=C(c2ccc(Cl)cc2)C1` [Compound 107, trans-4-(4-{[2-(4-chlorophenyl)-4,4-dimethylcyclohex-1-en-1-yl]methyl}piperazin-1-yl)-N-({4-[(1,1-dioxidothiomorpholin-4-yl)amino]-3-nitrophenyl}sulfonyl)-2-(1H-pyrrolo[2,3-b]pyridin-5-yloxy)benzamide] was tested. Which pKi did it give?
**A.** 10.46

**Q.** How did the pKi turn out when `CC1(C)CCC(CN2CCN(c3ccc(C(=O)NS(=O)(=O)c4ccc(NCC5(N)CCOCC5)c([N+](=O)[O-])c4)c(Oc4cnc5[nH]ccc5c4)c3)CC2)=C(c2ccc(Cl)cc2)C1` [Compound 108, N-[(4-{[(4-aminotetrahydro-2H-pyran-4-yl)methyl]amino}-3-nitrophenyl)sulfonyl]-4-(4-{[2-(4-chlorophenyl)-4,4-dimethylcyclohex-1-en-1-yl]methyl}piperazin-1-yl)-2-(1H-pyrrolo[2,3-b]pyridin-5-yloxy)benzamide] was run?
**A.** > 11.00

**Q.** `CC1(C)CCC(CN2CCN(c3ccc(C(=O)NS(=O)(=O)c4ccc(N[C@H]5CC[C@@H](N6CCOCC6)C5)c([N+](=O)[O-])c4)c(Oc4cnc5[nH]ccc5c4)c3)CC2)=C(c2ccc(Cl)cc2)C1` [Compound 111, 4-(4-{[2-(4-chlorophenyl)-4,4-dimethylcyclohex-1-en-1-yl]methyl}piperazin-1-yl)-N-[(4-{[(1S,3R)-3-morpholin-4-ylcyclopentyl]amino}-3-nitrophenyl)sulfonyl]-2-(1H-pyrrolo[2,3-b]pyridin-5-yloxy)benzamide] was tested. Which pKi did it give?
**A.** > 11.00

**Q.** With `CC1(C)CCC(CN2CCN(c3ccc(C(=O)NS(=O)(=O)c4ccc(N[C@@H]5CC[C@H](N6CCOCC6)C5)c([N+](=O)[O-])c4)c(Oc4cnc5[nH]ccc5c4)c3)CC2)=C(c2ccc(Cl)cc2)C1` [Compound 112, 4-(4-{[2-(4-chlorophenyl)-4,4-dimethylcyclohex-1-en-1-yl]methyl}piperazin-1-yl)-N-[(4-{[(1R,3S)-3-morpholin-4-ylcyclopentyl]amino}-3-nitrophenyl)sulfonyl]-2-(1H-pyrrolo[2,3-b]pyridin-5-yloxy)benzamide] as the compound, how does the pKi read?
**A.** > 11.00

**Q.** How did the pKi turn out when `CC1(C)CCC(CN2CCN(c3ccc(C(=O)NS(=O)(=O)c4ccc(NCC5CNCCO5)c([N+](=O)[O-])c4)c(Oc4cnc5[nH]ccc5c4)c3)CC2)=C(c2ccc(Cl)cc2)C1` (centres unmarked) [Compound 113, 4-(4-{[2-(4-chlorophenyl)-4,4-dimethylcyclohex-1-en-1-yl]methyl}piperazin-1-yl)-N-({4-[(morpholin-2-ylmethyl)amino]-3-nitrophenyl}sulfonyl)-2-(1H-pyrrolo[2,3-b]pyridin-5-yloxy)benzamide] was run?
**A.** > 11.00

**Q.** With `CC1(C)CCC(CN2CCN(c3ccc(C(=O)NS(=O)(=O)c4ccc(NCC5CCOC5)c([N+](=O)[O-])c4)c(Oc4cnc5[nH]ccc5c4)c3)CC2)=C(c2ccc(Cl)cc2)C1` (centres unmarked) [Compound 114, 4-(4-{[2-(4-chlorophenyl)-4,4-dimethylcyclohex-1-en-1-yl]methyl}piperazin-1-yl)-N-({3-nitro-4-[(tetrahydrofuran-3-ylmethyl)amino]phenyl}sulfonyl)-2-(1H-pyrrolo[2,3-b]pyridin-5-yloxy)benzamide] as the compound, how does the pKi read?
**A.** > 11.00

**Q.** `CC1(C)CCC(CN2CCN(c3ccc(C(=O)NS(=O)(=O)c4ccc(NC5CN(C6CCOCC6)C5)c([N+](=O)[O-])c4)c(Oc4cnc5[nH]ccc5c4)c3)CC2)=C(c2ccc(Cl)cc2)C1` [Compound 116, 4-(4-{[2-(4-chlorophenyl)-4,4-dimethylcyclohex-1-en-1-yl]methyl}piperazin-1-yl)-N-({3-nitro-4-[(1-tetrahydro-2H-pyran-4-ylazetidin-3-yl)amino]phenyl}sulfonyl)-2-(1H-pyrrolo[2,3-b]pyridin-5-yloxy)benzamide] was tested. Which pKi did it give?
**A.** > 11.00

**Q.** How did the pKi turn out when `CC1(C)CCC(CN2CCN(c3ccc(C(=O)NS(=O)(=O)c4ccc(NC5CN(C6CCOC6)C5)c([N+](=O)[O-])c4)c(Oc4cnc5[nH]ccc5c4)c3)CC2)=C(c2ccc(Cl)cc2)C1` (centres unmarked) [Compound 117, 4-(4-{[2-(4-chlorophenyl)-4,4-dimethylcyclohex-1-en-1-yl]methyl}piperazin-1-yl)-N-({3-nitro-4-[(1-tetrahydrofuran-3-ylazetidin-3-yl)amino]phenyl}sulfonyl)-2-(1H-pyrrolo[2,3-b]pyridin-5-yloxy)benzamide] was run?
**A.** > 11.00

**Q.** How did the pKi turn out when `CC1(C)CCC(CN2CCN(c3ccc(C(=O)NS(=O)(=O)c4ccc(NC[C@H]5CCN(C6CCOCC6)C5)c([N+](=O)[O-])c4)c(Oc4cnc5[nH]ccc5c4)c3)CC2)=C(c2ccc(Cl)cc2)C1` [Compound 118, 4-(4-{[2-(4-chlorophenyl)-4,4-dimethylcyclohex-1-en-1-yl]methyl}piperazin-1-yl)-N-{[3-nitro-4-({[(3R)-1-tetrahydro-2H-pyran-4-ylpyrrolidin-3-yl]methyl}amino)phenyl]sulfonyl}-2-(1H-pyrrolo[2,3-b]pyridin-5-yloxy)benzamide] was run?
**A.** > 11.00

**Q.** With `CC1(C)CCC(c2ccc(Cl)cc2)=C(CN2CCN(c3ccc(C(=O)NS(=O)(=O)c4ccc(OCC5(F)CCOCC5)c([N+](=O)[O-])c4)c(Oc4cnc5[nH]ccc5c4)c3)CC2)C1` [Compound 119, 4-(4-{[2-(4-chlorophenyl)-5,5-dimethylcyclohex-1-en-1-yl]methyl}piperazin-1-yl)-N-({4-[(4-fluorotetrahydro-2H-pyran-4-yl)methoxy]-3-nitrophenyl}sulfonyl)-2-(1H-pyrrolo[2,3-b]pyridin-5-yloxy)benzamide] as the compound, how does the pKi read?
**A.** > 11.00

**Q.** With `CC1(C)CCC(CN2CCN(c3ccc(C(=O)NS(=O)(=O)c4ccc(NC[C@H]5CC[C@H](O)CC5)c([N+](=O)[O-])c4)c(Oc4cnc5[nH]ccc5c4)c3)CC2)=C(c2ccc(Cl)cc2)C1` [Compound 120] as the compound, how does the pKi read?
**A.** > 11.00

**Q.** With `CC1(C)CCC(CN2CCN(c3ccc(C(=O)NS(=O)(=O)c4ccc(N[C@H]5CC[C@@H](NC6CC6)CC5)c([N+](=O)[O-])c4)c(Oc4cnc5[nH]ccc5c4)c3)CC2)=C(c2ccc(Cl)cc2)C1` [Compound 122, cis-4-(4-{[2-(4-chlorophenyl)-4,4-dimethylcyclohex-1-en-1-yl]methyl}piperazin-1-yl)-N-[(4-{[4-(cyclopropylamino)cyclohexyll]amino}-3-nitrophenyl)sulfonyll]-2-(1H-pyrrolo[2,3-b]pyridin-5-yloxy)benzamide] as the compound, how does the pKi read?
**A.** > 11.00

**Q.** `CC1(C)CCC(CN2CCN(c3ccc(C(=O)NS(=O)(=O)c4cnc(O[C@H]5CC[C@H](N6CCOCC6)CC5)c(Br)c4)c(Oc4cnc5[nH]ccc5c4)c3)CC2)=C(c2ccc(Cl)cc2)C1` [Compound 124] was tested. Which pKi did it give?
**A.** > 11.00

**Q.** How did the pKi turn out when `CC1(C)CCC(CN2CCN(c3ccc(C(=O)NS(=O)(=O)c4ccc(OCC5(F)CCN(C(=O)OC(C)(C)C)CC5)c([N+](=O)[O-])c4)c(Oc4cnc5[nH]ccc5c4)c3)CC2)=C(c2ccc(Cl)cc2)C1` [Compound 126, tert-butyl 4-{[4-({[4-(4-{[2-(4-chlorophenyl)-4,4-dimethylcyclohex-1-en-1-yl]methyl}piperazin-1-yl)-2-(1H-pyrrolo[2,3-b]pyridin-5-yloxy)benzoyl]amino}sulfonyl)-2-nitrophenoxy]methyl}-4-fluoropiperidine-1-carboxylate] was run?
**A.** > 11.00
